“And” between values parts separate entries of the source, which are not always exact repeats. Equal values may be shown once.
Conditions: Liquid, transient hot wire

CCCCCCCCCCCCCCC [pentadecane]
Conditions | thermal conductivity
318.28 K, 1420 kPa | 0.1369 W/m/K
318.31 K, 1420 kPa | 0.138 W/m/K
318.36 K, 15320 kPa | 0.1419 W/m/K
318.4 K, 1420 kPa | 0.1376 W/m/K
318.4 K, 21080 kPa | 0.1429 W/m/K
318.42 K, 21080 kPa | 0.1432 W/m/K
318.44 K, 15320 kPa | 0.1408 W/m/K and 0.1415 W/m/K
318.45 K, 21080 kPa | 0.1432 W/m/K
318.49 K, 5220 kPa | 0.1386 W/m/K
318.5 K, 10340 kPa | 0.1403 W/m/K
318.52 K, 5220 kPa | 0.1382 W/m/K
318.54 K, 10340 kPa | 0.139 W/m/K
318.56 K, 10340 kPa | 0.1394 W/m/K
318.59 K, 5220 kPa | 0.1377 W/m/K
336.96 K, 20240 kPa | 0.1393 W/m/K
337.02 K, 15360 kPa | 0.1403 W/m/K
337.04 K, 5660 kPa | 0.1338 W/m/K
337.09 K, 5660 kPa | 0.1353 W/m/K
337.1 K, 20240 kPa | 0.1399 W/m/K
337.13 K, 20240 kPa | 0.1401 W/m/K
337.14 K, 5660 kPa | 0.1361 W/m/K
337.14 K, 15360 kPa | 0.1368 W/m/K
337.18 K, 1270 kPa | 0.1332 W/m/K
337.2 K, 15360 kPa | 0.1372 W/m/K
337.22 K, 1270 kPa | 0.132 W/m/K
337.24 K, 1270 kPa | 0.1338 W/m/K
337.25 K, 10510 kPa | 0.1368 W/m/K
337.28 K, 10510 kPa | 0.1356 W/m/K
356.45 K, 5190 kPa | 0.1334 W/m/K
356.57 K, 5190 kPa | 0.1301 W/m/K
356.61 K, 5190 kPa | 0.131 W/m/K
356.68 K, 10160 kPa | 0.1329 W/m/K
356.7 K, 1040 kPa | 0.1284 W/m/K
356.71 K, 10160 kPa | 0.1307 W/m/K
356.72 K, 10160 kPa | 0.1314 W/m/K
356.74 K, 15190 kPa | 0.1321 W/m/K
356.75 K, 1040 kPa | 0.13 W/m/K
356.75 K, 20580 kPa | 0.1355 W/m/K
356.79 K, 20580 kPa | 0.1377 W/m/K
356.8 K, 15190 kPa | 0.132 W/m/K
356.83 K, 15190 kPa | 0.1341 W/m/K
356.9 K, 20580 kPa | 0.1346 W/m/K
377.3 K, 5560 kPa | 0.1275 W/m/K
377.31 K, 5560 kPa | 0.1262 W/m/K
377.33 K, 10240 kPa | 0.1296 W/m/K
377.39 K, 5560 kPa | 0.1272 W/m/K
377.4 K, 10240 kPa | 0.1302 W/m/K
377.44 K, 1420 kPa | 0.1248 W/m/K
377.46 K, 10240 kPa | 0.1284 W/m/K
377.52 K, 20480 kPa | 0.131 W/m/K
377.53 K, 1420 kPa | 0.1234 W/m/K
377.6 K, 1420 kPa | 0.1238 W/m/K
377.6 K, 20480 kPa | 0.1304 W/m/K
377.61 K, 20480 kPa | 0.1326 W/m/K
377.62 K, 15010 kPa | 0.1288 W/m/K
377.7 K, 15010 kPa | 0.1284 W/m/K
377.73 K, 15010 kPa | 0.1274 W/m/K
396.74 K, 20460 kPa | 0.1297 W/m/K
396.83 K, 20460 kPa | 0.1291 W/m/K
397.07 K, 20460 kPa | 0.1276 W/m/K
397.22 K, 10360 kPa | 0.1224 W/m/K
397.22 K, 15080 kPa | 0.1248 W/m/K
397.24 K, 10360 kPa | 0.1252 W/m/K
397.31 K, 15080 kPa | 0.1229 W/m/K
397.32 K, 15100 kPa | 0.1242 W/m/K
397.38 K, 10410 kPa | 0.1225 W/m/K
397.42 K, 1330 kPa | 0.1182 W/m/K
397.44 K, 5360 kPa | 0.1209 W/m/K
397.47 K, 1330 kPa | 0.1188 W/m/K
397.49 K, 1330 kPa | 0.1165 W/m/K
397.52 K, 5360 kPa | 0.1202 W/m/K
397.57 K, 5360 kPa | 0.1176 W/m/K
417.11 K, 5290 kPa | 0.121 W/m/K
417.13 K, 20250 kPa | 0.1228 W/m/K
417.16 K, 15230 kPa | 0.1204 W/m/K
417.19 K, 15230 kPa | 0.1227 W/m/K
417.26 K, 15230 kPa | 0.1223 W/m/K
417.27 K, 10550 kPa | 0.1227 W/m/K
417.3 K, 20250 kPa | 0.1195 W/m/K
417.36 K, 1130 kPa | 0.1134 W/m/K
417.37 K, 1130 kPa | 0.115 W/m/K
417.47 K, 10430 kPa | 0.1185 W/m/K
417.48 K, 1130 kPa | 0.1123 W/m/K
417.5 K, 10430 kPa | 0.1178 W/m/K
436.73 K, 20320 kPa | 0.1172 W/m/K
436.78 K, 20320 kPa | 0.1187 W/m/K
436.9 K, 10760 kPa | 0.1134 W/m/K

— the NIST ThermoML archive (doi:10.1007/s10765-019-2537-x)
